According to ChEMBL document CHEMBL1201862, “PubChem BioAssay data set” (2004):
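Protocol summary: plate cells (96-well), add compound at 5 concentrations, incubate 48 h, interpolate endpoints linearly. GI50 marks 50% less growth.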 Active and inactive are the calls of the source. Cut-off read from the data, not from the text of the source: active = GI50 up to about 1.1 µM and inactive = higher.

What was measured:
Assay in all cases: DTP human tumour cell line panel, 48 h
[1] = tested on: A549
[2] = tested on: CCRF-CEM
[3] = tested on: HCC 2998
[4] = tested on: HCT-15
[5] = tested on: HOP-62
[6] = tested on: Hs-578T
[7] = tested on: K562
[8] = tested on: KM12
[9] = tested on: LOX IMVI
[10] = tested on: M14
[11] = tested on: OVCAR-3
[12] = tested on: OVCAR-4
[13] = tested on: OVCAR-5
[14] = tested on: PC-3
[15] = tested on: SF-295
[16] = tested on: SK-MEL-2
[17] = tested on: SK-MEL-5
[18] = tested on: SNB-19
[19] = tested on: U-251
[20] = tested on: UACC-62

Measured: GI50

C=C1C(=O)O[C@@]23C1CC[C@@H](C)C2CC[C@@]1(C)OC31 (stereo not given in full)
inactive: [1] 21.2 µM | [2] 3.42 µM | [3] 4.9 µM | [5] 10 µM | [6] 16 µM | [7] 7.78 µM | [8] 12.8 µM | [9] 11.5 µM | [10] 3.52 µM | [11] 3.27 µM | [12] 8.91 µM | [13] 12.6 µM | [14] 5.05 µM | [15] 18.2 µM | [16] 5.58 µM | [17] 3.24 µM | [18] 18.6 µM | [19] 6.35 µM | [20] 12.1 µM
9.33 µM: [4]

COc1ccc(Nc2nc(N)c(C(=O)c3cccs3)s2)cc1
active: [3] 0.931 µM
inactive: [1] 5.7 µM | [2] 3.38 µM | [5] 16.9 µM | [6] 11.5 µM | [7] 3.64 µM | [8] 2.99 µM | [9] 6.67 µM | [10] 13.4 µM | [11] 3.47 µM | [12] 9.73 µM | [13] 15.8 µM | [14] 11.4 µM | [15] 10.9 µM | [16] 10.9 µM | [17] 2.8 µM | [18] 11 µM | [19] 7.5 µM | [20] 11.3 µM
3.11 µM: [4]

CC1CC(C)(O)CC(C(O)CC2CC(=O)NC(=O)C2)C1=O (stereo not given) [RESACTIN A]
0.0989 µM: [4]
active: [1] 0.0513 µM | [2] < 0.014 µM | [3] 0.0441 µM | [5] 0.027 µM | [6] < 0.0126 µM | [7] 0.0309 µM | [8] 0.0327 µM | [9] 0.0283 µM | [10] 0.034 µM | [11] 0.0566 µM | [12] 0.0447 µM | [13] 0.059 µM | [14] 0.0465 µM | [15] < 0.0149 µM | [16] 0.0585 µM | [17] 0.0132 µM | [18] 0.0303 µM | [19] 0.0313 µM | [20] 0.0413 µM

CC(=O)/C=C/C1=C(C)CCCC1(C)CC(C)C (stereo not given)
15.1 µM: [4]
inactive: [1] 24.9 µM | [2] 14.9 µM | [3] 17.6 µM | [5] 57.9 µM | [6] 32.7 µM | [7] 16 µM | [8] 34.8 µM | [9] 18.6 µM | [10] 31.6 µM | [11] 26.5 µM | [12] 63.8 µM | [13] 61.5 µM | [14] 35 µM | [15] 34.2 µM | [16] 19.6 µM | [17] 16.9 µM | [18] 27.4 µM | [19] 26.7 µM | [20] 22.4 µM

CC(=O)O[C@H]1CC[C@H]2[C@@H]3CCC4=C/C(=N/OCCN(C)C)CC[C@]4(C)[C@H]3CC[C@]12C
inactive: [1] 12 µM | [2] 2.52 µM | [3] 6.43 µM | [5] 13.4 µM | [6] 13.5 µM | [7] 2.11 µM | [8] 5.61 µM | [9] 3.16 µM | [10] 3.18 µM | [11] 12.8 µM | [12] 10.9 µM | [13] 16.9 µM | [14] 12.5 µM | [15] 5.41 µM | [16] 11 µM | [17] 4.58 µM | [18] 7.59 µM | [19] 13.3 µM | [20] 10.7 µM
2.22 µM: [4]

COC(O)C(=O)c1c2c(cc3c1CCC3)CCCC2 (stereo not given)
4.25 µM: [4]
inactive: [1] 18.6 µM | [2] 2.39 µM | [3] 1.97 µM | [5] 17.1 µM | [6] 4.22 µM | [7] 3.07 µM | [8] 8.59 µM | [9] 1.99 µM | [10] 10.2 µM | [11] 4.65 µM | [12] 7.31 µM | [13] 18.1 µM | [14] 4.32 µM | [15] 10.5 µM | [16] 11.4 µM | [17] 4.47 µM | [18] 17.2 µM | [19] 14 µM | [20] 3.47 µM

Cc1ccc(CN2CCN(Cc3ccc(C)o3)C(C)C2)o1 (stereo not given)
> 100 µM: [4]
inactive: [1] > 100 µM | [2] > 100 µM | [3] > 100 µM | [5] > 100 µM | [6] > 100 µM | [7] > 100 µM | [8] > 100 µM | [9] > 100 µM | [10] > 100 µM | [11] > 100 µM | [12] > 100 µM | [13] > 100 µM | [14] > 100 µM | [15] > 100 µM | [16] > 100 µM | [17] > 100 µM | [18] > 100 µM | [19] > 100 µM | [20] > 100 µM

COCC1OC(OC2C3=C(C(C)C)CCC3(C)/C=C3\C(CCC3(O)COC)C(C)C2O)C(O)C2OC3OC12OC3(C)C1CO1 (stereo not given)
25.1 µM: [4]
inactive: [1] 53.8 µM | [2] 24.3 µM | [3] 42.2 µM | [5] 89.5 µM | [6] 19.6 µM | [7] 25.1 µM | [8] 52.8 µM | [9] 22.5 µM | [10] 43.2 µM | [11] 26.4 µM | [12] 25.5 µM | [13] > 100 µM | [14] 35 µM | [15] 31.7 µM | [16] 83.6 µM | [17] 18 µM | [18] 28.1 µM | [19] 24 µM | [20] 21.9 µM

Cn1c2c(c3ccccc31)CCN(CCCCN1CCN(c3ccccc3)CC1)C2=O
17.2 µM: [4]
inactive: [1] 97.3 µM | [2] 24.5 µM | [3] 5.62 µM | [5] 85.7 µM | [6] 12.4 µM | [7] 4.15 µM | [8] 30.1 µM | [9] 12.8 µM | [10] 4.58 µM | [11] 57.3 µM | [12] 42.1 µM | [13] 19.6 µM | [14] 11.7 µM | [15] > 88.3 µM | [16] 24 µM | [17] 5.69 µM | [18] 75.9 µM | [19] 34.8 µM | [20] 31.8 µM

O=c1[nH]c(=S)[nH]n1C(=S)n1[nH]c(=S)[nH]c1=O
> 100 µM: [4]
inactive: [1] > 100 µM | [2] 71.8 µM | [3] > 100 µM | [5] > 100 µM | [6] > 100 µM | [7] > 100 µM | [8] > 100 µM | [9] 60.4 µM | [10] > 100 µM | [11] 41.7 µM | [12] > 100 µM | [13] > 100 µM | [14] > 100 µM | [15] > 100 µM | [16] > 100 µM | [17] > 100 µM | [18] > 100 µM | [19] > 100 µM | [20] > 100 µM

CCN(CC)C(=O)CCN1CC1
> 10 µM: [4]
inactive: [1] > 10 µM | [2] > 10 µM | [3] > 10 µM | [5] > 10 µM | [6] > 10 µM | [7] > 10 µM | [8] > 10 µM | [9] > 10 µM | [10] > 10 µM | [11] > 10 µM | [12] > 10 µM | [13] > 10 µM | [14] > 10 µM | [15] > 10 µM | [16] > 10 µM | [17] > 10 µM | [18] > 10 µM | [19] > 10 µM | [20] > 10 µM

C/C(=N\NC(=S)N(C)CCN(C)C(=S)N/N=C(\C)c1ccccn1)c1ccccn1
inactive: [1] 2.37 µM | [3] 10.4 µM | [5] 1.67 µM | [6] 25.9 µM | [7] 1.55 µM | [10] > 100 µM | [13] 5.9 µM | [16] 10.1 µM | [18] 3.04 µM | [20] 2.31 µM
active: [2] 0.428 µM | [8] 0.435 µM | [9] 0.811 µM | [11] 0.174 µM | [12] 0.298 µM | [14] 0.553 µM | [15] 0.805 µM | [17] 0.431 µM | [19] 0.745 µM
0.45 µM: [4]

COc1cc([N+](=O)[O-])ccc1NC1=CC(=O)CCC1
> 100 µM: [4]
inactive: [1] > 100 µM | [2] > 100 µM | [3] > 100 µM | [5] > 100 µM | [6] > 100 µM | [7] > 100 µM | [8] > 100 µM | [9] > 100 µM | [10] > 100 µM | [11] > 100 µM | [12] > 100 µM | [13] > 100 µM | [14] > 100 µM | [15] > 100 µM | [16] > 100 µM | [17] > 100 µM | [18] > 100 µM | [19] > 100 µM | [20] > 100 µM

Oc1cc(Cl)cc2cccnc12
active: [1] 0.998 µM | [2] 0.288 µM | [7] 0.396 µM | [9] 0.625 µM | [11] 0.306 µM | [12] 0.411 µM | [15] 0.288 µM | [17] 0.902 µM | [19] 0.971 µM | [20] 1.01 µM
inactive: [3] 24.5 µM | [5] > 35 µM | [6] 4.05 µM | [8] 4.78 µM | [10] 10.5 µM | [13] 4.85 µM | [14] 1.26 µM | [16] 5.92 µM | [18] 5.94 µM
0.552 µM: [4]
